# Patent US5399543A, “3-[4-(phenylmethoxy)phenyl]-1-substituted-6-haloalkyl-uracil herbicides” (FMC Corporation, priority 1993, dated 1995)
# Columns and labels:
# [1] = system: Soybean; test: Preemergence herbicidal activity, soybean; format: in vivo, Glycine max var. Williams; settings: Glycine max, pre-emergence, 0.3 kg/ha, after 17-21 days, read-out: Preemergence herbicidal activity (% control), Soybean
# Procedure: (§1) The 3-[4-(phenylmethoxy)phenyl]-1-substituted-6-haloalkyluracil herbicides of this invention were tested for pre- and postemergence herbicidal activity using a variety of crops and weeds. The test plants included soybean (Glycine max var. Williams), field corn (Zea mays var. Agway 425X), wheat (Triticum aestivum var. Wheaton), morningglory (Ipomea lacunosa or Ipomea hederacea), velvetleaf (Abutilon theophrasti), green foxtail (Setaria viridis), Johnsongrass (Sorghum halepense), blackgrass (Aloepecurus myosuroides), common chickweed (Stellaria media), and common cocklebur (Xanthium pensylvanicum).
# (§2) For preemergence testing, two disposable fiber flats (8 cm×15 cm×25 cm) for each rate of application of each candidate herbicide were filled to an approximate depth of 6.5 cm with steam-sterilized sandy loam soil. The soil was leveled and impressed with a template to provide five evenly spaced furrows 13 cm long and 0.5 cm deep in each flat. Seeds of soybean, wheat, corn, green foxtail, and johnsongrass were planted in the furrows of the first flat, and seeds of velvetleaf, morningglory, common chickweed, cocklebur, and blackgrass were planted in the furrows of the second flat. The five-row template was employed to firmly press the seeds into place. A topping soil of equal portions of sand and sandy loam soil was placed uniformly on top of each flat to a depth of approximately 0.5 cm. Flats for postemergence testing were prepared in the same manner except that they were planted 8-12 days prior to the preemergence flats and were placed in a greenhouse and watered, thus allowing the seeds to germinate and the foliage to develop.
# (§3) In both pre- and postemergence tests, a stock solution of the candidate herbicide was prepared by dissolving 0.27 g of the compound in 20 mL of water/acetone (50/50) containing 0.5% v/v sorbitan monolaurate. For an application rate of 3000 g/ha of herbicide a 10 mL portion of the stock solution was diluted with water/acetone (50/50) to 45 mL.
# (§4) The preemergence flats were initially subjected to a light water spray. The four flats were placed two by two along a conveyor belt (i.e., the two preemergence followed by the two postemergence flats). The conveyor belt fed under a spray nozzle mounted about ten inches above the postemergent foliage. The preemergent flats were elevated on the belt so that the soil surface was at the same level below the spray nozzle as the foliage canopy of the postemergent plants. The spray of herbicidal solution was commenced and once stabilized, the flats were passed under the spray at a speed to receive a coverage equivalent of 1000 L/ha. At this coverage the application rates are those shown in the above table for the individual herbicidal solutions. The preemergence flats were watered immediately thereafter, placed in the greenhouse and watered regularly at the soil surface. The postemergence flats were immediately placed in the greenhouse and not watered until 24 hours after treatment with the test solution. Thereafter they were regularly watered at ground level. After 17-21 days the plants were examined and the phytotoxicity data were recorded.
# (§5) Herbicidal activity data at selected application rates are given for various compounds of this invention in Table 2 and Table 3. The test compounds are identified by numbers which correspond to those in Table 1.
# (§6) Phytotoxicity data were taken as percent control. Percent control was determined by a method similar to the 0 to 100 rating system disclosed in "Research Methods in Weed Science," 2nd ed., B. Truelove, Ed.; Southern Weed Science Society; Auburn University, Auburn, Ala., 1977.
# [2] = system: Wheat; test: Preemergence herbicidal activity, wheat; format: in vivo, Triticum aestivum var. Wheaton; settings: Triticum aestivum, pre-emergence, 0.3 kg/ha, after 17-21 days, read-out: Preemergence herbicidal activity (% control), Wheat
# Procedure: as §1, §2, §3, §4, §5, §6
# [3] = system: Corn; test: Preemergence herbicidal activity, corn; format: in vivo, Zea mays var. Agway 425X; settings: Zea mays, pre-emergence, 0.3 kg/ha, after 17-21 days, read-out: Preemergence herbicidal activity (% control), Corn
# Procedure: as §1, §2, §3, §4, §5, §6
# [4] = system: Velvetleaf; test: Preemergence herbicidal activity, velvetleaf; format: in vivo; settings: Abutilon theophrasti, pre-emergence, 0.3 kg/ha, after 17-21 days, read-out: Preemergence herbicidal activity (% control), Velvetleaf
# Procedure: as §1, §2, §3, §4, §5, §6
# [5] = system: Morningglory; test: Preemergence herbicidal activity, morningglory; format: in vivo, Ipomea lacunosa or Ipomea hederacea; settings: Ipomoea, pre-emergence, 0.3 kg/ha, after 17-21 days, read-out: Preemergence herbicidal activity (% control), Morningglory
# Procedure: as §1, §2, §3, §4, §5, §6
# [6] = system: Chickweed; test: Preemergence herbicidal activity, chickweed; format: in vivo; settings: Stellaria media, pre-emergence, 0.3 kg/ha, after 17-21 days, read-out: Preemergence herbicidal activity (% control), Chickweed
# Procedure: as §1, §2, §3, §4, §5, §6
# [7] = system: Cocklebur; test: Preemergence herbicidal activity, cocklebur; format: in vivo, Xanthium pensylvanicum; settings: Xanthium strumarium, pre-emergence, 0.3 kg/ha, after 17-21 days, read-out: Preemergence herbicidal activity (% control), Cocklebur
# Procedure: as §1, §2, §3, §4, §5, §6
# [8] = system: Blackgrass; test: Preemergence herbicidal activity, blackgrass; format: in vivo, Aloepecurus myosuroides; settings: Alopecurus myosuroides, pre-emergence, 0.3 kg/ha, after 17-21 days, read-out: Preemergence herbicidal activity (% control), Blackgrass
# Procedure: as §1, §2, §3, §4, §5, §6
# [9] = system: Green foxtail; test: Preemergence herbicidal activity, green foxtail; format: in vivo; settings: Setaria viridis, pre-emergence, 0.3 kg/ha, after 17-21 days, read-out: Preemergence herbicidal activity (% control), Green foxtail
# Procedure: as §1, §2, §3, §4, §5, §6
# [10] = system: Johnsongrass; test: Preemergence herbicidal activity, johnsongrass; format: in vivo; settings: Sorghum halepense, pre-emergence, 0.3 kg/ha, after 17-21 days, read-out: Preemergence herbicidal activity (% control), Johnsongrass
# Procedure: as §1, §2, §3, §4, §5, §6
# [11] = system: Soybean; test: Postemergence herbicidal activity, soybean; format: in vivo, Glycine max var. Williams; settings: Glycine max, post-emergence, 0.3 kg/ha, after 17-21 days, read-out: Postemergence herbicidal activity (% control), Soybean
# Procedure: as §1, §2, §3, §4, §5, §6
# [12] = system: Wheat; test: Postemergence herbicidal activity, wheat; format: in vivo, Triticum aestivum var. Wheaton; settings: Triticum aestivum, post-emergence, 0.3 kg/ha, after 17-21 days, read-out: Postemergence herbicidal activity (% control), Wheat
# Procedure: as §1, §2, §3, §4, §5, §6
# [13] = system: Corn; test: Postemergence herbicidal activity, corn; format: in vivo, Zea mays var. Agway 425X; settings: Zea mays, post-emergence, 0.3 kg/ha, after 17-21 days, read-out: Postemergence herbicidal activity (% control), Corn
# Procedure: as §1, §2, §3, §4, §5, §6
# [14] = system: Velvetleaf; test: Postemergence herbicidal activity, velvetleaf; format: in vivo; settings: Abutilon theophrasti, post-emergence, 0.3 kg/ha, after 17-21 days, read-out: Postemergence herbicidal activity (% control), Velvetleaf
# Procedure: as §1, §2, §3, §4, §5, §6
# [15] = system: Morningglory; test: Postemergence herbicidal activity, morningglory; format: in vivo, Ipomea lacunosa or Ipomea hederacea; settings: Ipomoea, post-emergence, 0.3 kg/ha, after 17-21 days, read-out: Postemergence herbicidal activity (% control), Morningglory
# Procedure: as §1, §2, §3, §4, §5, §6
# [16] = system: Chickweed; test: Postemergence herbicidal activity, chickweed; format: in vivo; settings: Stellaria media, post-emergence, 0.3 kg/ha, after 17-21 days, read-out: Postemergence herbicidal activity (% control), Chickweed
# Procedure: as §1, §2, §3, §4, §5, §6
# [17] = system: Cocklebur; test: Postemergence herbicidal activity, cocklebur; format: in vivo, Xanthium pensylvanicum; settings: Xanthium strumarium, post-emergence, 0.3 kg/ha, after 17-21 days, read-out: Postemergence herbicidal activity (% control), Cocklebur
# Procedure: as §1, §2, §3, §4, §5, §6
# [18] = system: Blackgrass; test: Postemergence herbicidal activity, blackgrass; format: in vivo, Aloepecurus myosuroides; settings: Alopecurus myosuroides, post-emergence, 0.3 kg/ha, after 17-21 days, read-out: Postemergence herbicidal activity (% control), Blackgrass
# Procedure: as §1, §2, §3, §4, §5, §6
# [19] = system: Green foxtail; test: Postemergence herbicidal activity, green foxtail; format: in vivo; settings: Setaria viridis, post-emergence, 0.3 kg/ha, after 17-21 days, read-out: Postemergence herbicidal activity (% control), Green foxtail
# Procedure: as §1, §2, §3, §4, §5, §6
# [20] = system: Johnsongrass; test: Postemergence herbicidal activity, johnsongrass; format: in vivo; settings: Sorghum halepense, post-emergence, 0.3 kg/ha, after 17-21 days, read-out: Postemergence herbicidal activity (% control), Johnsongrass
# Procedure: as §1, §2, §3, §4, §5, §6
Compound,activity at 300 g/ha [1] [%],activity at 300 g/ha [2] [%],activity at 300 g/ha [3] [%],activity at 300 g/ha [4] [%],activity at 300 g/ha [5] [%],activity at 300 g/ha [6] [%],activity at 300 g/ha [7] [%],activity at 300 g/ha [8] [%],activity at 300 g/ha [9] [%],activity at 300 g/ha [10] [%],activity at 300 g/ha [11] [%],activity at 300 g/ha [12] [%],activity at 300 g/ha [13] [%],activity at 300 g/ha [14] [%],activity at 300 g/ha [15] [%],activity at 300 g/ha [16] [%],activity at 300 g/ha [17] [%],activity at 300 g/ha [18] [%],activity at 300 g/ha [19] [%],activity at 300 g/ha [20] [%]
Cn1c(C(F)(F)F)cc(=O)n(-c2ccc(OCc3ccc(F)cc3)cc2F)c1=O [Compound 11],85,20,85,100,100,100,90,20,100,95,80,20,70,100,100,80,100,0,100,100
Cc1cc(OCc2ccccc2)ccc1-n1c(=O)cc(C(F)(F)F)n(C)c1=O [Compound 12],10,0,40,60,10,0,0,0,80,60,20,0,0,30,20,0,0,0,50,0
Cn1c(C(F)(F)F)cc(=O)n(-c2ccc(OCc3ccc(F)cc3)cc2)c1=O [Compound 5],60,20,50,100,100,100,40,20,100,90,90,0,75,100,100,100,100,30,90,75
Cn1c(C(F)(F)F)cc(=O)n(-c2ccc(OCc3ccccc3)cc2F)c1=O [Compound 9],85,40,80,100,100,90,50,30,100,100,70,20,70,100,100,80,100,0,100,95
Cn1c(C(F)(F)F)cc(=O)n(-c2ccc(OCc3ccc(Cl)cc3Cl)cc2)c1=O [Compound 6],20,0,10,100,45,10,10,0,100,60,40,0,20,80,50,0,60,0,40,20
